The source of these data is patent publication US7579488B2 (Eli Lilly and Company, priority 2003, dated 2009).

The subject of data set [1] is IL-10. Nature of the data set: IL-10 induction assay. It counts as cell-based. The note with it: Homo sapiens, PBMC. The text has this:
6. The IL-10 Induction Assay
This is an in vitro efficacy assay for psoriasis, abscess and adhesion. Psoriasis involves both keratinocytes and immune cells. IL-10 is a unique cytokine because it is anti-inflammatory and immunosuppressive. This assay tells us whether a VDRM is able to function as an agonist in PBMCs ([…]) or not.
(6) Materials and Method for Human IL-10 Induction Assay:
Isolation of Peripheral Blood Mononuclear Cells (PBMCs):
B. Prepare sterile tubes with ficol.
C. Add diluted blood to tubes.
E. Discard the top layer and collect the cells from middle layer.
F. Divide all cells into four tubes and add media.
H. Aspirate off media and resuspend.
J. Centrifuge. at 1200 rpm for 10 minutes.
M. Dissolve PHA in water.
N. Plate TPA/PHA treated PBMCs in well plates.
Sample Collection and Assay:
S. Remove all the cells by centrifugation and assay the supernatant for IL-10 by immunoassay.
1) T. Perform […] using anti-human IL-10 antibody coated beads, as described by the manufacturer (Linco Research Inc., St. Charles, Mo.).

In data set [2] the target is T1, RXR-VDR heterodimer (Homo sapiens, UniProt P11473).
T1 construct: Add the Gal4-RXR-DEF and VP16-VDR-LBD; expressed in transfected cells; host or cells: SaOS-2 cells
T1 sequence (P11473 127-423 limits assumed): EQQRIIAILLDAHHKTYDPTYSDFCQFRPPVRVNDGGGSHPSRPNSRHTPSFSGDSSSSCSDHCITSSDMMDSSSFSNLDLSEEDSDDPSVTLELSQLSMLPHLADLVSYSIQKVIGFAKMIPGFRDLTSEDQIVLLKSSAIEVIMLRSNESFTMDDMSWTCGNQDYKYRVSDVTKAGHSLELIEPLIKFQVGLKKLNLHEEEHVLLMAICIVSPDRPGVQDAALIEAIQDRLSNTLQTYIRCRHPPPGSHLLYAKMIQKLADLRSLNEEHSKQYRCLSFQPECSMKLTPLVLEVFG
T1 sequence (P19793 201-462 partner limits assumed): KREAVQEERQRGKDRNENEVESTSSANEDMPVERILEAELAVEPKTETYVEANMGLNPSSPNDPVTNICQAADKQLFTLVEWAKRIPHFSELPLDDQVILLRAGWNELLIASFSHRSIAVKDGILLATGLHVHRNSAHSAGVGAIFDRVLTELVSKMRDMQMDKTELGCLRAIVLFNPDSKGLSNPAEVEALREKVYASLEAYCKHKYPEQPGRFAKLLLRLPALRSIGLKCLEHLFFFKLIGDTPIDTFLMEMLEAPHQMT
Nature of the data set: RXR-VDR heterodimerization assay (SaOS-2 cells). It counts as cell-based. The note with it: Gal4-RXR-DEF/VP16-VDR-LBD luciferase reporter, several values in a cell separated by /. In general terms: Reporter assays use an easily measured gene product as a stand-in for the process of interest.

Data set [3] concerns the target T2, VDR (Homo sapiens, UniProt P11473).
T2 construct: the receptor expression vector pGal4-VDR-LBD (10 ng); expressed in transfected cells; host or cells: Caco-2 cells
T2 sequence (P11473 127-423 limits assumed): T1 sequence (P11473 127-423 limits assumed)
Nature of the data set: VDR CTF (Caco-2 cell co-transfection) assay. It counts as cell-based. The settings on record: Caco-2 cells, pGal4-VDR-LBD co-transfection, luciferase; several values separated by /. The procedure: 2. The Caco-2 Cell Co-Transfection Assay:
The Caco-2 cell assay is an indicator for the undesirable condition of hypercalcemia. This co-transfection assay is a surrogate assay for in vivo calcemic activity of VDR ligands. […] Preferred assay results are greater than 1000 nM.
(2) Materials and Method for the Caco-2 Cell Assay:
Caco-2 cells, grown in phenol red free, DMEM (Invitrogen, Carlsbad, Calif.) containing 10% charcoal-stripped FCS (Hyclone, Logan, Utah), were transfected with Fugene 6 reagent (Roche Diagnostics, Indianapolis, Ind.). Cells (5000/well) were plated 18 h before transfection in a 96 well plate. The Cells were transfected with Gal4-responsive reporter pFRLuc (150 ng, Stratagene, La Jolla Calif.) and the receptor expression vector pGal4-VDR-LBD (10 ng), along with Fugene 6 reagent (0.2 μl/well). The DNA-Fugene complex was formed by incubating the mixture for 30 min at room temperature. The cells were transfected in triplicate for 5 h, and treated with various concentrations of VDR ligands (form 0.01 nM to 10,000 nM concentration range) 18 h post-transfection. The luciferase activity was quantified using Steady-Glo reagent kit (Promega, Madison, Wis.) as per manufacturer's specifications.

The test system of data set [4] is rat osteocalcin promoter. Nature of the data set: OCN (osteocalcin) promoter assay. It counts as cell-based. The settings on record: RG-15 (ROS 17/2.8) cells. The method in brief: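 Rat osteoblast-like RG-15 (ROS 17/2.8) cells stably carrying a luciferase reporter driven by the osteocalcin promoter, treated with compounds in DMSO (0.01% v/v final) in medium with 2% FBS. After 48 hr at 37 °C, cells were lysed and luciferase activity measured.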

The subject of data set [5] is KERtr cells. Nature of the data set: Keratinocyte proliferation assay. The settings on record: Homo sapiens, read-out: Kera. Prolif. IC50. It counts as cell-based.
In data set [6] the test system is female DBF mice. Nature of the data set: Mouse hypercalcemia assay. The note with it: oral gavage for 6 days.
Source text: The Mouse Hypercalcemia Assay
(§1) The Mouse Hypercalcemia Assay is a six day hypercalcemia test for toxicity and selectivity.
(§2) (4) Materials and Method for the Mouse Hypercalcemia Assay:
(§3) Weanling, virus-antibody-free, five to six weeks old female DBF mice (Harlan, Indianapolis, Ind.) are used for all the studies. Animals are allowed to acclimate to local vivarium conditions for 2 days. […] The animals then are divided into groups with 4-5 mice per group. Different doses of test compounds prepared in 10% Ethanol and 90% sesame oil are administered to mice orally via gavage for 6 days. 1α-25(OH)2D3 0.5 μg/kg/d was also given to one group of mice as the positive control. […] Raw data of group differences is assessed by analysis of variance (ANOVA) using Fisher's protected least significant difference (PLSD) where the significance level was P<0.05.
Data set [7] relates to female DBF mice. The note with it: in vivo, po.
Source text: The Mouse Hypercalcemia Assay
as §1, §2, §3
The mark [8] stands for this setting: TPA/PHA stimulated human PBMCs, IL-10 in supernatant by immunoassay, several values separated by /.
Setting [9] is: Rattus norvegicus, 48 h, 48 hr treatment, luciferase, several values separated by /.
[10] abbreviates: 72 h, BrdU incorporation, several values separated by /.
[11] abbreviates: serum ionized calcium 6 hours after last dosing.

“And” between values parts separate entries of the source, which are not always exact repeats. Equal entries are not always repeated. Where two headings read alike, the source gives them in different places.

For orientation: IC50 means the midpoint of a concentration-inhibition curve. What is called EC50 is the concentration giving half of the maximal effect. Regarding `CCC(CC)(c1ccc(OCC(O)C(C)(C)C)c(C)c1)c1ccc2oc(C(=O)O)cc2c1` (stereo not shown) [Ex 31, 5-{1-ethyl-1-[4-(2-hydroxy-3,3-dimethyl-butoxy)-3-methyl-phenyl]-propyl}-benzofuran-2-carboxylic acid], the values for the IC50 in data set [1] (setting [8]) and in data set [5] (setting [10]) were 0.0054 µM and 0.001 µM, respectively. Also, the results for the 50% effective concentration (EC50) in data set [2], in data set [3] and in data set [4] (setting [9]) were 0.012 µM, 279 nM and 0.0005 µM, respectively.

In the case of `CCc1cc(C(CC)(CC)c2cc3cc(C(=O)O)ccc3o2)ccc1OCC(=O)C(C)(C)C` [Ex. 12], the IC50 in data set [1] (setting [8]) amounted to 0.049 µM; in data set [5] (setting [10]) it was 0.016 µM. Besides, the “Mouse Hypercal” value in data set [6] (setting [11]) is greater than 1000 µg/kg/day. Moreover, the results for the EC50 in data set [3] and in data set [4] (setting [9]) were 515 nM and 0.0007 µM, respectively.

Take `CCC(CC)(c1ccc(OCC(=O)C(C)(C)C)c(C)c1)c1ccc2oc(C(=O)O)cc2c1` [Ex 30, 5-{1-[4-(3,3-dimethyl-2-oxo-butoxy)-3-methyl-phenyl]-1-ethyl-propyl}-benzofuran-2-carboxylic acid]: the IC50 in data set [1] (setting [8]) worked out at 0.025 µM; in data set [5] (setting [10]) it was 0.009 µM. Moreover, in data set [6] (setting [11]), the “Mouse Hypercal” value was greater than 1000 µg/kg/day. For the same compound, the EC50 was determined as 364 nM in data set [3] and 0.0003 µM in data set [4] (setting [9]).

As for `CCC(CC)(c1ccc(OCC(=O)C(C)(C)C)c(C)c1)c1cc(C)c2oc(C(=O)O)cc2c1` [Ex 21, 5-{1-[4-(3,3-dimethyl-2-oxo-butoxy)-3-methyl-phenyl]-1-ethyl-propyl}-7-methyl-benzofuran-2-carboxylic acid], the IC50 in data set [1] (setting [8]) was determined as 0.08 µM; in data set [5] (setting [10]) it was 0.018 µM. Also, in data set [6] (setting [11]), the “Mouse Hypercal” value was greater than 1000 µg/kg/day. The EC50 in data set [2] is 0.05 µM and 0.005 µM; in data set [3], 462 nM; in data set [4] (48 hr treatment, luciferase, several values separated by /), 0.001 µM; in data set [4] (setting [9]), 0.002 µM.

As for `CCC(CC)(c1ccc(OCC(O)CO)c(C)c1)c1ccc(OCC(O)C(C)(C)C)c(C)c1` (stereo not shown) [BB, 3-(4-{1-Ethyl-1-[4-(2-hydroxy-3,3-dimethyl-butoxy)-3-methyl-phenyl]-propyl}-2-methyl-phenoxy)-propane-1,2-diol, reference compound], the IC50 amounted to 0.028 µM in data set [1] (comparison compounds, human PBMCs) and 0.01 µM in data set [5] (comparison compounds). The “Mouse Hypercal” value in data set [6] (comparison compounds) was 20 µg/kg/day. Further, in data set [4] (Rattus norvegicus, comparison compounds), the EC50 came to 0.00824 µM.

Turning to `CCC(CC)(c1ccc(OCC(=O)C(C)(C)C)c(C)c1)c1cc2cc(C(=O)NCC(=O)O)ccc2o1` [Ex 7, [(2-{1-[4-(3,3-Dimethyl-2-oxo-butoxy)-3-methyl-phenyl]-1-ethylpropyl}-benzofuran-5-carbonyl)-amino]-acetic acid], the figures for the IC50 in data set [1] (setting [8]) and in data set [5] (setting [10]) were 0.024 µM and 0.005 µM, respectively. Besides, the “Mouse Hypercal” value in data set [6] (setting [11]) was greater than 300 µg/kg/day. Moreover, the EC50 in data set [3] came to 412 nM; in data set [4] (setting [9]), 0.0004 µM.

Take `CCC(CC)(c1ccc(OCC(=O)C(C)(C)C)c(C)c1)c1ccc2oc(C(=O)NCC(=O)O)cc2c1` [Ex 32, [(5-{1-[4-(3,3-dimethyl-2-oxo-butoxy)-3-methyl-phenyl]-1-ethyl-propyl}-benzofuran-2-carbonyl)-amino]-acetic acid]: the IC50 in data set [1] (setting [8]) was found to be 0.051 µM; in data set [5] (setting [10]) it was 0.01 µM. Further, the “Mouse Hypercal” value in data set [6] (setting [11]) was greater than 300 µg/kg/day. For the same compound, the EC50 was 0.031 µM and 0.004 µM in data set [2]; 385 nM in data set [3]; 0.001 µM in data set [4] (setting [9]).

As for `C=C1/C(=C\C=C2/CCC[C@]3(C)[C@@H]([C@H](C)CCCC(C)(C)O)CC[C@@H]23)C[C@@H](O)C[C@@H]1O` [AA, 1α,25-dihydroxyvitamin D3], in data set [7], the “Mouse Hypercal” value was found to be 0.06 µg/kg/day.

With `CCC(CC)(c1ccc(OCC(=O)C(C)(C)C)c(C)c1)c1cc2cc(C(=O)Nc3nn[nH]n3)ccc2o1` [Ex. 11, 2-{1-[4-(3,3-dimethyl-2-oxo-butoxy)-3-methyl-phenyl]-1-ethyl-propyl}-benzofuran-5-carboxylic acid (2H-tetrazol-5-yl)-amide], the values for the IC50 in data set [1] (setting [8]) and in data set [5] (setting [10]) were greater than 2 µM and 0.009 µM, respectively. Also, the “Mouse Hypercal” value in data set [6] (setting [11]) was greater than 1000 µg/kg/day. Also, the EC50 in data set [2] was determined as 0.73 µM; in data set [3], 819 nM.
